From patent US9034896B2, “N-(imidazolidin-2-ylidene)-heterocyclopenta[b]pyridine derivatives as modulators of alpha 2 adrenergic receptors” (Allergan, Inc., priority 2011, dated 2015)

Assays:
Format in all cases: cell-based
[1] = biological target: T1, Alpha 2B adrenergic receptor (Homo sapiens, UniProt P18089); assay: RSAT (Receptor Selection and Amplification Technology) assay, alpha 2B; settings: for EC50 / Intrinsic Activity EC50 Alpha 2B: cells expressing alpha 2B receptor alone, receptor-mediated growth response, NA = not active; for EC50: read-out: Intrinsic Activity EC50 Alpha 2B; for Intrinsic Activity (efficacy) Alpha 2B: relative efficacy compared to a standard full agonist
T1 construct: expressed in transfected cells
T1 sequence (P18089 1-450): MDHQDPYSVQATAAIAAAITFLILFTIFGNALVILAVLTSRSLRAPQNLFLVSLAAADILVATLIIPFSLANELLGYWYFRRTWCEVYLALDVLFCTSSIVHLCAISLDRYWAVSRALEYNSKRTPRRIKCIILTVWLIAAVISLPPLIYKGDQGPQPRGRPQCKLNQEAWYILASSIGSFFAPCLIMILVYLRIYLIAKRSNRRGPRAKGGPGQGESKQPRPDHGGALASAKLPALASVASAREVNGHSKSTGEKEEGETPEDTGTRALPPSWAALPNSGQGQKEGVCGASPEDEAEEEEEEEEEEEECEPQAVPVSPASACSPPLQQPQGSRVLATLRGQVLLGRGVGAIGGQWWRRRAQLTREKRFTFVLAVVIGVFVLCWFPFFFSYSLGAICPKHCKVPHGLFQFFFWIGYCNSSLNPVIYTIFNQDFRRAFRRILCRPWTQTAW
Procedure: (§1) Cells expressing each of the alpha 2 adrenergic receptors alone were incubated with the various compounds and a receptor-mediated growth response was measured. The compound's activity is expressed as its relative efficacy compared to a standard full agonist (see Table 3).

[2] = biological target: T2, Alpha 2C adrenergic receptor (Homo sapiens, UniProt P18825); assay: RSAT (Receptor Selection and Amplification Technology) assay, alpha 2C; settings: for EC50: read-out: Intrinsic Activity EC50 Alpha 2C; for Intrinsic Activity (efficacy) Alpha 2C: relative efficacy compared to a standard full agonist
T2 construct: expressed in transfected cells
T2 sequence (P18825 1-462): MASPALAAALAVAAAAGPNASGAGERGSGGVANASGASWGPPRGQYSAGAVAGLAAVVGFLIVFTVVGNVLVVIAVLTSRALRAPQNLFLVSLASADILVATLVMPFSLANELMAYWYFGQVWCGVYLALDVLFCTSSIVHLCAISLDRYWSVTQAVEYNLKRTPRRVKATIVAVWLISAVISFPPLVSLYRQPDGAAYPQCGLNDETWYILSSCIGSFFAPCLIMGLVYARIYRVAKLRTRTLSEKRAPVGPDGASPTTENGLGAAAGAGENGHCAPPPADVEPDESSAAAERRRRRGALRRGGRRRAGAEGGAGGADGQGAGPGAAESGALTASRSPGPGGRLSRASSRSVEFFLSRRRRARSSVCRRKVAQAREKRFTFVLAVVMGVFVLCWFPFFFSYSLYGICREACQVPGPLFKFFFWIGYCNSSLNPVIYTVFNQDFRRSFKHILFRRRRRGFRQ
Procedure: as §1

[3] = biological target: T3, Alpha 2A adrenergic receptor (Homo sapiens, UniProt P08913); assay: RSAT (Receptor Selection and Amplification Technology) assay, alpha 2A; settings: for EC50: cells expressing alpha 2A receptor alone, receptor-mediated growth response, NA = not active, read-out: Intrinsic Activity EC50 Alpha 2A; for Intrinsic Activity (efficacy) Alpha 2A: relative efficacy compared to a standard full agonist
T3 construct: expressed in transfected cells
T3 sequence (P08913 1-465): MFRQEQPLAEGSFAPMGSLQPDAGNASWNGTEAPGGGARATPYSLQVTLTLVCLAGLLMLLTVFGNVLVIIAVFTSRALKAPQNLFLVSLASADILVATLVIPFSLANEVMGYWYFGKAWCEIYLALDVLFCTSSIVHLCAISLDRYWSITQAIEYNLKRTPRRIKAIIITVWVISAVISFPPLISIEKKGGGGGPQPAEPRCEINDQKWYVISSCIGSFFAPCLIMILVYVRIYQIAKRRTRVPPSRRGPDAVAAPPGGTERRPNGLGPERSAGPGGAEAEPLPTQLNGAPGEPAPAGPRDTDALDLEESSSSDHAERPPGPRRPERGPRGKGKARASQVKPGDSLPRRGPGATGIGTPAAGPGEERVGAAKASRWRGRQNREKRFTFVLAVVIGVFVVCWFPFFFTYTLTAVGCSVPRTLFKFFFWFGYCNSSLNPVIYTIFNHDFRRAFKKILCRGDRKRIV
Procedure: as §1

[4] = cells expressing alpha 2C receptor alone, receptor-mediated growth response, NA = not active

SMILES	EC50 [1]	Intrinsic Activity (efficacy) Alpha 2B [1]	EC50 [2, 4]	Intrinsic Activity (efficacy) Alpha 2C [2]	EC50 [3]	Intrinsic Activity (efficacy) Alpha 2A [3]	Intrinsic Activity EC50 Alpha 2B [1]	Intrinsic Activity EC50 Alpha 2C [2, 4]
c1nc2cc(N=C3NCCN3)cnc2s1 [Compound 6, N-(4,5-dihydro-1H-imidazol-2-yl)thiazolo[5,4-b]pyridin-6-amine]	267 nM	0.46	10 nM	0.97				
Clc1c(N=C2NCCN2)cnc2[nH]ccc12 [Compound 2, 4-Chloro-N-(imidazolidin-2-ylidene)-1H-pyrrolo[2,3-b]pyridin-5-amine]	5.36 nM	0.72	10.5 nM	0.91	25.2 nM	0.73		
c1nc2cc(N=C3NCCN3)cnc2[nH]1 [Compound 8, N-(imidazolidin-2-ylidene)-3H-imidazo[4,5-b]pyridin-6-amine]	722 nM	0.61	448 nM	0.87				
c1cc2cc(N=C3NCCN3)cnc2[nH]1 [Compound 7, N-(imidazolidin-2-ylidene)-1H-pyrrolo[2,3-b]pyridin-5-amine]		(0.87)	7.3 nM	0.94	16.2 nM	0.89	potent	
Cn1ccc2cc(N=C3NCCN3)cnc21 [Compound 4, N-(imidazolidin-2-ylidene)-1-methyl-1H-pyrrolo[2,3-b]pyridin-5-amine]	114 nM	0.57	31 nM	0.93				
c1cc2cc(N=C3NCCN3)cnc2o1 [Compound 5, N-(imidazolidin-2-ylidene)furo[2,3-b]pyridin-5-amine]			2110 nM	0.73				
Cc1c(N=C2NCCN2)cnc2[nH]ccc12 [Compound 1, N-(4,5-dihydro-1H-imidazol-2-yl)-4-methyl-1H-pyrrolo[2,3-b]pyridin-5-amine]		(0.82)		(0.94)	8.2 nM	0.85	potent	potent
Brc1c(N=C2NCCN2)cnc2[nH]ccc12 [Compound 3, 4-Bromo-N-(imidazolidin-2-ylidene)-1H-pyrrolo[2,3-b]pyridin-5-amine]	32.6 nM	0.17	31.2 nM	0.84	62.2 nM	0.16		
